{"source": "patent US20260174854A1", "about": "“Systems And Methods For Imaging Diverse Pathogenic Bacteria In Vivo With [18F]Fluoromannitol Positron Emission Tomography” (priority 2022, published 2026)", "key": {"[1]": {"system": "S. aureus", "assay": "serial [^18F]FMtl PET during vancomycin treatment of S. aureus myositis", "format": "in vivo, mice", "settings": "FIG. 7A", "procedure": "A growing incidence of antimicrobial resistance in many bacterial pathogens is a serious concern, as treatment failure is a major threat to global health. Inappropriate antibiotic use is also the primary driver of antibiotic resistance, which places undue risk onto patients for adverse events such as allergic reactions and C. difficile infection. […] Mice were inoculated with S. areus in the right triceps brachii and imaged 8 hours post-infection with [^18F]FMtl, prior to initiation of vancomycin treatment (100 mg/kg every 8 hours, IP) and subsequently imaged at 24 and 72 hours post-treatment. […] The accumulation of [^18F]FMtl was further investigated in a panel of bacterial isolates from infected combat wounds of military service members (see FIG. 7B)."}, "[2]": {"system": "E. coli", "assay": "murine myositis model, live vs 10× heat-killed bacteria, PET imaging (E. coli)", "format": "in vivo, mice", "settings": "gram-negative strain; infected vs inflamed triceps brachii, FIG. 2A", "text": "(§1) Referring now to FIGS. 2A-2D, a murine myositis model of musculoskeletal infection was used to determine whether [^18F]FMtl could differentiate sterile inflammation from infection in vivo by inoculating the right triceps brachii with a live strain of bacteria and the left triceps brachii with 10× heat-killed bacteria to generate an inflammatory response."}, "[3]": {"system": "E. coli", "assay": "mixed infection (polymicrobial) myositis model, PET/CT, E. coli-infected right triceps brachii", "format": "in vivo, mice", "settings": "for postmortem gamma counting of tissues: E. coli-infected muscle; for E. coli SUV, [^18F]FMtl versus [^18F]FDS: P=0.11", "text": "(§2) Referring now to FIGS. 3A-3B, the sensitivity of [^18F]FMtl compared to [^18F]FDS was also investigated in a mixed infection (polymicrobial) model. [^18F]FDS has shown remarkable specificity for Enterobacteriaceae in vivo, but has limited to no sensitivity toward gram-positive and other gram-negative organisms. Mice were inoculated with live E. coli (8.4×10^6 CFU) and S. aureus (8.8×10^6 CFU) in the right and left triceps brachii, respectively."}, "[4]": {"system": "S. aureus", "assay": "mixed infection (polymicrobial) myositis model, PET/CT, S. aureus-infected left triceps brachii", "format": "in vivo, mice", "settings": "for postmortem gamma counting of tissues: S. aureus-infected muscle", "text": "as §2"}, "[5]": {"system": "live strain of bacteria", "assay": "murine myositis model, infection vs sterile inflammation, PET SUV / Patlak / CFU correlation (strain not stated at the result)", "format": "in vivo, mice", "text": "as §1\nTo quantify PET signal, volumes of interest (VOIs) were generated in the upper limbs of mice using CT for anatomical localization. […] Biodistribution studies were performed in successive cohorts of mice over 3 hours to determine dosimetry of [^18F]FMtl. […] Static PET SUV were correlated with bacterial colony-forming units (CFU) from excised tissue to determine sensitivity of [^18F]FMtl (see FIG. 2C), indicating [^18F]FMtl can reliably detect as little as 5 log10 (CFU/mL) of bacteria in vivo by SUV. It was also investigated whether parametric mapping could increase bacterial sensitivity of [^18F]FMtl in vivo, as Patlak slope (K,) is a quantitative measure of rate of uptake in tissue, rather than SUV, which is semi-quantitative and cannot delineate signal from blood pool contamination and tissue. Parametric imaging improved the bacterial sensitivity of [^18F]FMtl by roughly 20-fold (log10 CFU=1.3; 1.7×10^6 improved to […]) (see FIG. 2D)."}, "[6]": {"system": "S. aureus", "assay": "in vitro accumulation of radiotracer in S. aureus cultures (gamma counts)", "format": "cell-based", "settings": "for accumulation in S. aureus cultures, tracer comparison: FIG. 1D, FMtl vs FDS P<0.001", "procedure": "(§3) Accumulation of [^18F]FMtl was also evaluated in a broad panel of bacterial strains."}, "[7]": {"system": "broad panel of bacterial strains", "assay": "uptake in a broad panel of bacterial strains (pathogens of clinical interest)", "format": "cell-based", "settings": "60 minutes of incubation, FIG. 1B", "procedure": "FIG. 1B is a graph showing uptake of [^18F]FMtl in pathogens of clinical interest, determined at 60 minutes of incubation;\nas §3"}, "[8]": {"system": "S. aureus", "assay": "murine myositis model, live vs 10× heat-killed bacteria, PET imaging (S. aureus)", "format": "in vivo, mice", "settings": "gram-positive strain; infected vs inflamed triceps brachii, FIG. 2A", "text": "as §1"}, "[9]": {"system": "A. baumannii", "assay": "laceration wound model infected with A. baumannii, [^18F]FMtl PET", "format": "in vivo", "settings": "A. baumannii and several other ESKAPE pathogens", "text": "In an exemplary embodiment, [^18F]FMtl was able to differentiate sterile inflammation and bacterial infection resulting from S. aureus and E. coli in vivo in a murine myositis model using PET imaging. Exemplary embodiments of the present disclosure were extended to a laceration wound model infected with A. baumannii, an important pathogen in the nosocomial and battlefield setting. […] [^18F]FMtl PET was also able to monitor therapeutic efficacy of vancomycin against S. aureus in vivo. The ease of production of [^18F]FMtl facilitates wide dissemination from any radiopharmacy."}, "[10]": {"system": "E. coli", "assay": "in vitro accumulation of radiotracer in E. coli cultures (gamma counts)", "format": "cell-based", "procedure": "as §3"}, "[11]": {"system": "S. aureus", "assay": "competitive uptake assay of [^18F]FMtl in the presence of unlabeled D-mannitol", "format": "cell-based", "settings": "co-incubation in S. aureus cultures, FIG. 1C", "procedure": "FIG. 1C is a graph showing a competitive uptake assay of [^18F]FMtl in the presence of unlabeled D-mannitol in S. aureus;\nas §3"}}, "note": "“Also recorded” adds a separate entry of the source."}
{"compound": "CN[C@H](CC(C)C)C(=O)N[C@H]1C(=O)N[C@@H](CC(N)=O)C(=O)N[C@H]2C(=O)N[C@H]3C(=O)N[C@H](C(=O)N[C@H](C(=O)O)c4cc(O)cc(O)c4-c4cc3ccc4O)[C@H](O)c3ccc(c(Cl)c3)Oc3cc2cc(c3O[C@@H]2O[C@H](CO)[C@@H](O)[C@H](O)[C@H]2O[C@H]2C[C@](C)(N)[C@H](O)[C@H](C)O2)Oc2ccc(cc2Cl)[C@H]1O", "note": "[vancomycin, reference compound]", "values": [{"measurement": "[^18F]FMtl PET signal during treatment", "setting": "[1]; vancomycin 100 mg/kg every 8 hours, IP, imaged 8 hours post-infection, 24 and 72 hours post-treatment", "result": "diminished over the course of treatment"}]}
{"compound": "OC[C@@H](O)[C@@H](O)[C@H](O)[C@H]([18F])CO", "note": "[[^18F]FMtl, [^18F]fluoromannitol]", "values": [{"measurement": "accumulation at site of infection (PET)", "setting": "[2]", "result": "specifically accumulated in the site of infection"}, {"measurement": "relation of PET signal to CFU burden during treatment", "setting": "[1]; vancomycin treatment", "result": "correlating closely with CFU burden"}, {"measurement": "postmortem gamma counting of tissues", "setting": "[3]", "result": "uptake in both S. aureus and E. coli"}, {"measurement": "E. coli SUV, [^18F]FMtl versus [^18F]FDS", "setting": "[3]", "result": "no significant differences"}, {"measurement": "SUV / accumulation, E. coli versus S. aureus infection in the same animal", "setting": "[4]; E. coli 8.4×10^6 CFU right, S. aureus 8.8×10^6 CFU left, P=0.19", "result": "No significant differences in SUV; also recorded: indistinguishable accumulation"}, {"measurement": "accumulation in S. aureus infection, compared to [^18F]FDS", "setting": "[4]; P<0.001", "result": "significantly higher"}, {"measurement": "postmortem gamma counting of tissues", "setting": "[4]", "result": "uptake in both S. aureus and E. coli"}, {"measurement": "bacterial sensitivity with parametric imaging", "setting": "[5]; Patlak parametric mapping", "result": "7.0×10^5 CFU"}, {"measurement": "bacterial sensitivity before parametric imaging", "setting": "[5]; SUV", "result": "1.7×10^6 CFU"}, {"measurement": "time post-injection to significant differences in PET signal (infection detected and differentiated)", "setting": "[5]; dynamic imaging, intravenous injection", "result": 5, "unit": "min"}, {"measurement": "gamma counting of excised triceps brachii after scans", "setting": "[5]; ex vivo, infected vs inflamed tissue", "result": "increased PET signal in the infected tissue compared to inflamed"}, {"measurement": "bacteria reliably detected in vivo using the clinical standard SUV", "setting": "[5]; mouse, in vivo", "result": "10^5 CFU"}, {"measurement": "sensitivity between E. coli and S. aureus", "setting": "[5]; mouse, in vivo", "result": "did not diminish"}, {"measurement": "bacteria reliably detected in vivo by SUV (sensitivity)", "setting": "[5]; static PET SUV correlated with CFU from excised tissue, FIG. 2C", "result": "5 log10 (CFU/mL)"}, {"measurement": "increase of standardized uptake value (SUV) at infection compared to contralateral site of inflammation", "setting": "[5]; summed frames 45-60 minutes post-injection, FIG. 2B", "result": 3.5, "unit": "fold"}, {"measurement": "accumulation in S. aureus cultures, tracer comparison", "setting": "[6]", "result": "significantly higher"}, {"measurement": "accumulation in S. aureus versus E. coli cultures", "setting": "[6]; P=0.64", "result": "not significantly different"}, {"measurement": "incorporation of tracer over time", "setting": "[6]; heat-killed bacteria", "result": "not heat-killed bacteria"}, {"measurement": "incorporation of tracer over time", "setting": "[6]; live S. aureus cultures, FIG. 1A", "result": "readily incorporated"}, {"measurement": "strains excepted from rapid and significant accumulation", "setting": "[7]", "result": "P. aeruginosa and E. faecium"}, {"measurement": "accumulation in bacterial strains", "setting": "[7]; all strains tested except P. aeruginosa and E. faecium", "result": "rapid and significant accumulation"}, {"measurement": "accumulation at site of infection (PET)", "setting": "[8]", "result": "specifically accumulated in the site of infection"}, {"measurement": "detection of infection by PET", "setting": "[9]", "result": "rapidly and specifically detected"}, {"measurement": "accumulation in E. coli cultures, tracer comparison", "setting": "[10]; FIG. 1D", "result": "accumulated"}, {"measurement": "incorporation of tracer over time", "setting": "[10]; heat-killed bacteria", "result": "not heat-killed bacteria"}, {"measurement": "incorporation of tracer over time", "setting": "[10]; live E. coli cultures", "result": "readily incorporated"}]}
{"compound": "OC[C@@H](O)[C@@H](O)[C@H](O)[C@H](O)CO", "note": "[D-mannitol]", "values": [{"measurement": "concentration of D-mannitol that blocked [^18F]FMtl accumulation in bacteria", "setting": "[11]", "result": "≥ 10", "unit": "µg/mL"}]}
{"compound": "2-[^18F]fluoro-2-deoxy-glucose [[^18F]FDG, reference compound]", "values": [{"measurement": "differences in SUV between sites of infection and inflammation", "setting": "[5]; FIG. 2B", "result": "unable to demonstrate significant differences in SUV"}, {"measurement": "ability to distinguish infection from inflammation (PET)", "setting": "[5]; infected vs inflamed triceps brachii", "result": "unable to distinguish infection from inflammation"}]}
{"compound": "OC[C@@H](O)[C@@H](O)[C@H](O)[C@@H]([18F])CO", "note": "[[^18F]FDS, 2-[^18F]fluoro-2-deoxy-sorbitol]", "values": [{"measurement": "postmortem gamma counting of tissues", "setting": "[3]", "result": "only accumulated in E. coli-infected muscle"}, {"measurement": "specificity, E. coli compared to S. aureus infection", "setting": "[3]; P=0.007", "result": "high specificity for E. coli compared to S. aureus"}, {"measurement": "E. coli SUV, [^18F]FMtl versus [^18F]FDS", "setting": "[3]", "result": "no significant differences"}, {"measurement": "postmortem gamma counting of tissues", "setting": "[4]", "result": "only accumulated in E. coli-infected muscle"}, {"measurement": "accumulation in S. aureus cultures, tracer comparison", "setting": "[6]", "result": "not significantly different to negative control"}]}
